Several values for one entry are separate records, joined by “and”; a condition that tells them apart may be missing. Identical values can stand only once. Each block holds one molecule with its values, some of them ahead of it.
Tests used:
[1] = system: desmosines; test: Aorta desmosine levels in diabetic rats; format: in vivo, rat
Protocol: (§1) For desmosine analysis, the biopsy of tissue is fixated using paraffin. The paraffin is removed from the […] in the microfuge tubes by incubating for 10 minutes with 500 μL of xylene. Five microliters of water is added, the tubes gently vortexed and then microfuged. The xylene is carefully removed, 400 μL of 6N HCl is added to the protein pellet, and the samples hydrolyzed for 24 hours at 100° C. The acid is evaporated in a savant vacuum centrifuge and the hydrolysate redissolved in 400 μL distilled water. The samples are vortexed and microfuged and 20 μL removed from each tube for desmosine analysis by radioimmunoassay. Protein content is determined in 2 μL of the hydrolysate by slightly modifying the ninhydrin method. A stock ninhydrin solution is made by dissolving 10 g of ninhydrin in 375 mL of ethylene glycol and 125 mL of 4N sodium acetate buffer, pH 5.5. For the working solution, 250 μL of 10% stannous chloride suspension is added for every 10 mL of the ninhydrin stock solution. Hydroxyproline is determined in 50 μL of hydrolysate by amino acid analysis.

[2] = system: desmosines; test: Skin desmosine content in diabetic rats; format: in vivo, rat
Protocol: as §1
The production of desmosines, a precursor to elastin, can be regulated by compounds that affect the Amadorase pathway. Skin from normal, diabetic, and animals treated with 1-deoxy-1-morpholinofructose were excised and for desmosine content as described in example 29.

[3] = target: T1, Calf skin collagen type I (Bos taurus, UniProt P02453+P02465); test: 3DG-induced collagen crosslinking and inhibition by arginine (CNBr digest, SDS-PAGE); format: biochemical; details: 37° C., 24 hours
T1 construct: Calf skin collagen type I (1.3 mg; Sigma); purchased Sigma; host or cells: calf skin
Protocol: Collagen type I was treated with 3DG in the-presence or absence of arginine. The samples were subjected to cyanogen bromide (CNBr) digestion, electrophoresed on a 16.5% SDS Tris-tricine gel, and then the gels were processed using silver stain techniques to visualize the proteins. Lane 1 contains molecular weight marker standards. Lanes 2 and 5 contain 10 and 20 μl of the collagen mixture following CNBr digestion. Lanes 3 and 6 contain the collagen mixture treated with 3DG and then digested with CNBr, and loaded at 10 and 20 μl, respectively. Lanes 4 and 7 contain the mixture of collagen incubated with 5 mM 3DG and 10 mM arginine and then digested with CNBr, and loaded at 10 and 20 μl, respectively.
Collagen I was incubated in the presence or absence of 3DG in vitro. Calf skin collagen type I (1.3 mg; Sigma) was incubated in 20 mM Na-phosphate buffer, pH 7.25, either alone, with 5 mM 3DG, or with 5 mM 3DG plus 10 mM arginine, in a total volume of 1 ml at 37° C. for 24 hours and then frozen and lyophilized. The residue was dissolved in 0.5 ml of 70% formic acid and cyanogen bromide was added (20:1, w/w). This solution was incubated at 30° C. for 18 hours. […] The extent of collagen crosslinking was determined by applying equal volumes of sample and analyzing by SDS-PAGE electrophoresis (16.5% Tris-tricine gel), as determined by the effects of 3DG on the migration of collagen.

[4] = target: Amadorase; details: read-out: concentration inhibiting Amadorase by 50%; purified Amadorase, 37° C., 15 minutes
Protocol: Experiments were performed to test the effect of copper on the activity of the Amadorase enzyme in vitro. Using methods described elsewhere, increasing amounts of copper in the form of CuSO4, was added to an in vitro assay. Purified Amadorase was added to the reaction, incubated at 37° C. for 15 minutes, and the amount of FL3P measured. The graph depicted in FIG. 20 represents percent Amadorase activity as a function of copper concentration.

[5] = system: Amadorase; test: In vitro Amadorase-dependent production of 3DG from FL; format: biochemical; details: FL 2.6 mM
[6] = Urinary FL, 3DG and 3DF in humans after ingestion of glycated protein (2 g FL); format: in vivo, human; details: seven volunteers, 2 gram dose of fructoselysine as glycated protein food
Protocol: 260 g of casein, 120 g of glucose and 720 ml of water were mixed to give a homogeneous mixture. This mixture was transferred to a metal plate and heated at 65° C. for 68 hours. The resulting cake was then pulverized to a coarse powder. This powder contained 60% protein as determined by the Kjeldahl procedure.
One gram of the powder prepared as in step a., above, was hydrolyzed by refluxing with 6N HCl for 20 hours. The resulting solution was adjusted to pH 1.8 with NaOH solution and diluted to 100 ml. The fructoselysine content was measured on an amino acid analyzer as furosine, the product obtained from acid hydrolysis of fructoselysine. In this way, it was determined that the cake contained 5.5% (w/w) fructoselysine. […]
FL was measured by HPLC with a Waters 996 diode Array using a Waters C18 Free Amino Acid column at […] and a gradient elution system of acetonitrile-methyl alcohol-water (45:15:40) into acetonitrile-sodium acetate-water (6:2:92) at 1 ml/min. Quantitation employed an internal standard of meglumine. 3DF was measured by HPLC after deionization of the sample. […] Quantitation was performed from standard curves obtained daily with synthetic 3DF.
3DG was measured by GC-MS after deionization of the sample. […] Quantitation of 3DG employed selected ion monitoring using an internal standard of U-13C-3DG.

[7] = system: human dermal fibroblasts acquired from a patient with scleroderma; test: Collagen 1A1 mRNA by Northern blot in scleroderma fibroblasts; format: cell-based; details: 5 mM, 72 hours, normalized to GAPDH mRNA
Protocol: In these experiments 5 mM FL was added to cultured human dermal fibroblasts acquired from a patient with scleroderma. After 72 hours, cells were collected and mRNA isolated. Equal amounts of each mRNA preparation was separated by electrophoresis and the amount of collagen 1A1 mRNA detected by Northern blot using a radioactive probe to the collagen 1A1 mRNA as shown in FIG. 19. A phosphoimager was used to quantify the amount of collagen type 1 mRNA. A radioactive probe to the GAPDH mRNA was used as a control to normalize the level of collagen 1A1 mRNA in each sample. The level of collagen 1A1 RNA was decreased by 40%.

[8] = system: 3-deoxyglucosone; test: Reduction of urinary and plasma 3-deoxyglucosone by polyollysines and meglumine; format: in vivo, rat; details: for reduction of plasma 3-deoxyglucosone / average reduction of urinary 3-deoxyglucosone: rats, 10 μmols i.p.; for reduction of plasma 3-deoxyglucosone: plasma at end of 3 h; for average reduction of urinary 3-deoxyglucosone: urine 3 h before vs 3 h after, normalized to creatinine
Protocol: Urine was collected from six rats for three hours. A plasma sample was also obtained. The animals were then given 10 μmols of either sorbitollysine, mannitollysine, or galactitollysine by intraperitoneal injection. Urine was collected for another three hours, and a plasma sample obtained at the end of the three hours. 3-deoxyglucosone was measured in the samples, as described in Example 5, below, and variable volumes were normalized to creatinine. The average reduction of urinary 3-deoxyglucosone was 50% by sorbitollysine, 35% by mannitollysine and 35% by galactitollysine. Plasma 3-deoxyglucosone was reduced 40% by sorbitollysine, 58% by mannitollysine and 50% by galactitollysine.
Three rats were treated as in b), immediately above, except meglumine (100 μmols) was injected intraperitoneally instead of the above-mentioned lysine derivatives. Three hours after the injection the average 3-deoxyglucosone concentrations in the urine were decreased 42%.
3DG was measured by GC-MS after deionization of the sample. 3DG was derivatized with a 10-fold excess of diaminonaphthalene in PBS. Ethyl acetate extraction gave a salt free fraction which was converted to the trimethyl silyl ethers with Tri-Sil (Pierce). Analysis was performed on a Hewlett-Packard 5890 selected ion monitoring GC-MS system. GC was performed on a fused silica capillary column (DB-5,25 mx.25 mm) using the following temperature program: injector port 250° C., initial column temperature 150° C. which was held for 1 minute, then increased to 290° C. at 16° C./minute and held for 15 minutes. Quantitation of 3DG employed selected ion monitoring using an internal standard of U-13C-3DG.

[9] = system: desmosines; test: Lung desmosine levels in STZ-diabetic mice; format: in vivo; details: regardless of whether diabetic
Protocol: as §1
Lung tissues from mice made diabetic with STZ was excised and analyzed for desmosine levels. The levels of desmosines in diabetic mice were greater than non-diabetic mice.

[10] = individual treated diabetic rats

T1 sequence (P02453 162-1217 limits assumed): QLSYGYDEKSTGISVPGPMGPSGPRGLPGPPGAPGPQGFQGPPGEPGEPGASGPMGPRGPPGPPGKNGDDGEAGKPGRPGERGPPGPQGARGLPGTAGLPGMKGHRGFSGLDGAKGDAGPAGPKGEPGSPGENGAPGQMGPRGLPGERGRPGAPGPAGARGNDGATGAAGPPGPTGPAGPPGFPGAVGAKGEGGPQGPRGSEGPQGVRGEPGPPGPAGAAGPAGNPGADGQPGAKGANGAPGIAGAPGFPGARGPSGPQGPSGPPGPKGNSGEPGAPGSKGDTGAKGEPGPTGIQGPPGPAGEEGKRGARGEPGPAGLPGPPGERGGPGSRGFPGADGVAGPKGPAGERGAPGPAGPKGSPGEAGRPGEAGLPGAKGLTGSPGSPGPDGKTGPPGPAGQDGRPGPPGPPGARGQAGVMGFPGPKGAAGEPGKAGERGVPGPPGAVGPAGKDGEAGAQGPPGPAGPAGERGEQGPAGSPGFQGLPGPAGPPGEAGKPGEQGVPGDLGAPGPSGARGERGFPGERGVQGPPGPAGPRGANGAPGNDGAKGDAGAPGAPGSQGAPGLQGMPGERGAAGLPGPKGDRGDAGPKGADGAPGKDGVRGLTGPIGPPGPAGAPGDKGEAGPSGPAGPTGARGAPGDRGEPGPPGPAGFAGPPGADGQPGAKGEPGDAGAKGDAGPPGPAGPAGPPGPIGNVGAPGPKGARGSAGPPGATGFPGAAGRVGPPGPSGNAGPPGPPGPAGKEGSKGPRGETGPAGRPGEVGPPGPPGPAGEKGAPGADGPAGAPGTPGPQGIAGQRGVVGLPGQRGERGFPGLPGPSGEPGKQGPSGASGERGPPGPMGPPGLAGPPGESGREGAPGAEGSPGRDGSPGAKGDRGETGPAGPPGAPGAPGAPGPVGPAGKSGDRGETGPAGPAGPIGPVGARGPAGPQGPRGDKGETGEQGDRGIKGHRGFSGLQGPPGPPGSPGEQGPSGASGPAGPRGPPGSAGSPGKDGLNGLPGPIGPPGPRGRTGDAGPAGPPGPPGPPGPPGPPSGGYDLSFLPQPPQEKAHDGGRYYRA
T1 sequence (P02465 80-1117 limits assumed): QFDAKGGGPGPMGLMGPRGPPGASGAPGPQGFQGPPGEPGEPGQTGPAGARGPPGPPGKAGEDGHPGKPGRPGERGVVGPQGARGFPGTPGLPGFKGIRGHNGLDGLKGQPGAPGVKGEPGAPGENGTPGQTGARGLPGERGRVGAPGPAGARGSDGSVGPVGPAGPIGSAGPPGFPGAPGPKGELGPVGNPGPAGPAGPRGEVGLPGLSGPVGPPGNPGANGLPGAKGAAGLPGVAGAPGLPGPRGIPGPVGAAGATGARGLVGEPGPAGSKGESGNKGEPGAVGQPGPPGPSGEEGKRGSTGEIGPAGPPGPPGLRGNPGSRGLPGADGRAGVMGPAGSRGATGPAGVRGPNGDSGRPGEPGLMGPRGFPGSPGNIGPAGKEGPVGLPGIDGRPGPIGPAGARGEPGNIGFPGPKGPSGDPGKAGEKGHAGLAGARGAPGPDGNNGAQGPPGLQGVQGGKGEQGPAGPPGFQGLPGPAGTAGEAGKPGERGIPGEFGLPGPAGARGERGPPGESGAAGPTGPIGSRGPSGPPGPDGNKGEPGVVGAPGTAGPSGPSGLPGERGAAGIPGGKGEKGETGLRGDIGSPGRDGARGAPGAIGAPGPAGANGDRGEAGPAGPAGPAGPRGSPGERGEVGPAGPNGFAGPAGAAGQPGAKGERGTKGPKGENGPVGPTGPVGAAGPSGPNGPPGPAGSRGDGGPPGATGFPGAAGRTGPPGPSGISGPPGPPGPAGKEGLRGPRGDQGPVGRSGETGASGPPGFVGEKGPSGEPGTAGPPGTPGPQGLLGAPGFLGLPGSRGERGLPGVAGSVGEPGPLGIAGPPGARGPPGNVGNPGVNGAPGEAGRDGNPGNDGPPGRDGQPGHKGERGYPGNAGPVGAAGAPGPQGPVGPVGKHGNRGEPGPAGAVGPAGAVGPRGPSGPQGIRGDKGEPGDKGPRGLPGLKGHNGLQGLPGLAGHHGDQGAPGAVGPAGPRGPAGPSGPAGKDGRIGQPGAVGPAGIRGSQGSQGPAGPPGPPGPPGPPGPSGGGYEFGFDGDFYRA

SMILES: O=C(CN1CCOCC1)[C@@H](O)[C@H](O)[C@H](O)CO [1-deoxy-1-morpholinofructose]
aorta desmosine levels compared to untreated diabetic rats ([1]; diabetic rats, P=0.104): decrease in desmosine levels
aorta desmosine pmD/mgP [1, 10]: 3809 pmD/mgP and 2558 pmD/mgP and 2842 pmD/mgP and 2906 pmD/mgP and 3633 pmD/mgP and 3681 pmD/mgP
skin desmosine levels compared to untreated diabetic animals ([2]; diabetic animals, P=0.00242): lower levels of desmosines
skin desmosine content pmD/mgP [2, 10]: 63.1 pmD/mgP and 67.9 pmD/mgP (2×) and 88.1 pmD/mgP and 64.3 pmD/mgP and 65.8 pmD/mgP and 65.1 pmD/mgP and 66.8 pmD/mgP

SMILES: O=CC(=O)C[C@H](O)[C@H](O)CO [3DG, 3-deoxyglucosone, reference compound]
effect on collagen migration (crosslinking) ([3]; collagen type I with 5 mM 3DG): caused the collagen to migrate as if it had a higher molecular weight

SMILES: O=S(=O)([O-])[O-].[Cu+2] [Copper sulfate]
IC50 [4]: ~1 µM

SMILES: N=C(N)NCCC[C@H](N)C(=O)O [arginine]
inhibition of 3DG induced collagen crosslinking ([3]; collagen type I with 5 mM 3DG plus 10 mM arginine): fewer high molecular bands

3DG (mM) after 24 hours ([5]; reaction 1: Amadorase +, ATP +): 1.58 mM
FL3P (mM) after 24 hours ([5]; reaction 1: Amadorase +, ATP +): 0.2 mM
3DG (mM) after 24 hours ([5]; reaction 2: Amadorase +, ATP −): 0.08 mM
FL3P (mM) after 24 hours ([5]; reaction 2: Amadorase +, ATP −): 0.0 mM
3DG (mM) after 24 hours ([5]; reaction 3: Amadorase −, ATP +): 0.09 mM
FL3P (mM) after 24 hours ([5]; reaction 3: Amadorase −, ATP +): 0.0 mM
3DG (mM) after 24 hours ([5]; reaction 4: Amadorase −, ATP −): 0.08 mM
FL3P (mM) after 24 hours ([5]; reaction 4: Amadorase −, ATP −): 0.0 mM
time of peak 3DF excretion in urine after FL bolus [6]: about 4 hours
SMILES: N[C@@H](CCCCNCC(=O)[C@@H](O)[C@H](O)[C@H](O)CO)C(=O)O [fructoselysine]
decrease of level of collagen 1A1 RNA [7]: 40%

SMILES: N[C@@H](CCCCNC[C@H](O)[C@@H](O)[C@@H](O)[C@H](O)CO)C(=O)O [galactitollysine]
reduction of plasma 3-deoxyglucosone [8]: 50%
average reduction of urinary 3-deoxyglucosone [8]: 35%

SMILES: N[C@@H](CCCCNC[C@@H](O)[C@@H](O)[C@H](O)[C@H](O)CO)C(=O)O [mannitollysine]
reduction of plasma 3-deoxyglucosone [8]: 58%
average reduction of urinary 3-deoxyglucosone [8]: 35%

SMILES: CNC[C@H](O)[C@@H](O)[C@H](O)[C@H](O)CO [meglumine, reference compound]
decrease of average 3-deoxyglucosone concentration in urine ([8]; three rats, 100 μmols i.p., three hours after injection): 42%
lung desmosine levels compared to untreated mice [9]: less than mice not so treated

SMILES: N[C@@H](CCCCNC[C@H](O)[C@@H](O)[C@H](O)[C@H](O)CO)C(=O)O [sorbitollysine]
reduction of plasma 3-deoxyglucosone [8]: 40%
average reduction of urinary 3-deoxyglucosone [8]: 50%
